# Reference: PubChem BioAssay AID2060893 (Molecular Pharmacology Branch, DTP, NCI, 2025)
# System: K86415-001-R-J1-PDC complex spheroids, viability
# Test: Anticancer human tumor K86415-001-R-J1-PDC patient-derived lung adenocarcinoma cell line growth inhibition [RAS]
# Conditions: for IC50: curve of first compound; for viability, T/C: stronger effect = lower value
# Description: RAS pathway inhibitors in Combinations in Complex Spheroids
# A high-throughput screen of multi-cell type tumor spheroids was designed to identify active combinations of RAS pathway inhibitors and targeted small molecules. Complex spheroids include a stromal component modeled by human endothelial cells (HUVEC) and fibroblasts modeled by human mesenchymal stem cells (MSCs). The concentration ranges selected for each drug and investigational agent were based upon clinically achievable concentrations if the clinical Cmax of the agent was known.
# Compounds. The drugs and investigational agents: abemaciclib (NSC768073), cobimetinib (NSC768068), divarasib (GDC6063, NSC841802), docetaxel (NSC628503), GDC-1971 (RLY-1971, NSC841576), gemcitabine (NSC613327), inavolisib (NSC800729), ipatasertib (NSC767898), KB-0742 (NSC834161), MRTX-1133 (NSC836407), osimertinib (NSC779217), RMC-4630 (NSC839698), RMC-6236 (NSC851965), RMC-6291 (NSC852671), Ro-3306 (NSC812927), sapanisertib (NSC764658), SN-38 (NSC673596), staurosporine (NSC755774), SY5609 (NSC837396), and tovorafenib (DAY101, NSC766906), were obtained from the National Cancer Institute (NCI) Developmental Therapeutics Program Chemical Repository. The FDA-approved anticancer drug set is available from the NCI Developmental Therapeutics Program. […] The stock solutions were prepared in dimethyl sulfoxide (DMSO, Sigma-Aldrich, St. Louis, MO, cat. D2650) at 800-fold the tested concentration and stored at -70 degrees C prior to their use. All drugs and investigational agents were tested over a range starting from a high concentration at or near the clinical Cmax and decreasing in half-log increments. If the clinical Cmax for an agent had not been determined, the highest concentration tested was 10 microM.
# Cell Culture. All cells were maintained in an incubator at 37 degrees C and 5% CO2 with 95% humidity. The PDC lines were cultured according to standard operating procedures established by the NCI PDMR. All PDCs were thawed and cultured in Matrigel-coated flasks prepared with a working solution of 1X Ham's F-12 nutrient mix, without supplementation (Invitrogen, Waltham, MA, cat. 11765054), 100 U/mL penicillin-streptomycin (Invitrogen, cat. 15140122), and 2.5% Matrigel (Corning Inc., Corning, NY, cat. 354248) for the first three passages. The 362531-283-R-J2-PDC and 782815-120-R-J1-PDC lines were cultured in 6C/Colon 1B media, which includes advanced DMEM/F-12 (Thermo Fisher Scientific, cat. 12634028), 10 mM HEPES (Thermo Fisher Scientific, cat. 15630080), 1X GlutaMAX supplement (Thermo Fisher Scientific, cat. 35050061), 0.1 mg/mL primocin (InvivoGen, San Diego, CA, cat. ant-pm-2), 10% defined fetal bovine serum, heat inactivated (HyClone Laboratories Inc., Logan, UT, cat. SH30070.03HI), 50% L-WRN conditioned media (ATCC, cat. CRL-3276), 1.25 mM N-Acetyl-L-cysteine (Sigma-Aldrich, cat. A9165), 10 mM nicotinamide (Sigma-Aldrich, cat. N0636), 1X B-27 supplement (Thermo Fisher Scientific, cat. 17504044), 1X N-2 supplement (Thermo Fisher Scientific, cat. 17502048), 50 ng/mL human EGF (Thermo Fisher Scientific, cat. PHG0311), and 10 microM Y-27632 dihydrochloride (Tocris Bioscience, cat. 1254). The K12877-001-R-J1-PDC line was cultured in 6I media, which includes all 6C/Colon 1B media plus 10 ng/mL human FGF-10 (PeproTech, cat. 100-26), 1 ng/mL human FGF-2 (PeproTech, cat. 100-18B), 1 µM prostaglandin E2 (Tocris Bioscience, cat. 2296), […] hydrocortisone (Sigma-Aldrich, cat. H4001), and […] bovine insulin (Sigma-Aldrich, cat. I6634). The K86415-001-R-J1-PDC line was cultured in 6D media, which includes all 6C/Colon 1B media components minus the L-WRN conditioned media. The 485176-168-R4-J1-PDC was cultured in PANC media, which includes all 6C/Colon 1B media plus 100 ng/mL human FGF-10 (PeproTech, cat. 100-26), 500 nM SB-431542 (Selleckchem, cat. S1067), and 10 nM gastrin (Tocris Bioscience, cat. 3006). […]
# [1] = second compound 0.0316 µM, first compound 0.0316 µM
# [2] = second compound 0.0316 µM, first compound 0.1 µM
# [3] = second compound 0.0316 µM, first compound 0.316 µM
# [4] = second compound 0.0316 µM, first compound 1 µM
# [5] = second compound 0.0316 µM, first compound 3.16 µM
# [6] = second compound 0.0316 µM, first compound 10 µM
# [7] = second compound 0.1 µM, first compound 0.0316 µM
# [8] = second compound 0.1 µM, first compound 0.1 µM
# [9] = second compound 0.1 µM, first compound 0.316 µM
# [10] = second compound 0.1 µM, first compound 1 µM
# [11] = second compound 0.1 µM, first compound 3.16 µM
# [12] = second compound 0.1 µM, first compound 10 µM
# [13] = second compound 0.316 µM, first compound 0.0316 µM
# [14] = second compound 0.316 µM, first compound 0.1 µM
# [15] = second compound 0.316 µM, first compound 0.316 µM
# [16] = second compound 0.316 µM, first compound 1 µM
# [17] = second compound 0.316 µM, first compound 3.16 µM
# [18] = second compound 0.316 µM, first compound 10 µM
# [19] = second compound 1 µM, first compound 0.0316 µM
# [20] = second compound 1 µM, first compound 0.1 µM
# [21] = second compound 1 µM, first compound 0.316 µM
# [22] = second compound 1 µM, first compound 1 µM
# [23] = second compound 1 µM, first compound 3.16 µM
# [24] = second compound 1 µM, first compound 10 µM
# [25] = second compound 3.16 µM, first compound 0.0316 µM
# [26] = second compound 3.16 µM, first compound 0.1 µM
# [27] = second compound 3.16 µM, first compound 0.316 µM
# [28] = second compound 3.16 µM, first compound 1 µM
# [29] = second compound 3.16 µM, first compound 3.16 µM
# [30] = second compound 3.16 µM, first compound 10 µM
# [31] = second compound 10 µM, first compound 0.0316 µM
# [32] = second compound 10 µM, first compound 0.1 µM
# [33] = second compound 10 µM, first compound 0.316 µM
# [34] = second compound 10 µM, first compound 1 µM
# [35] = second compound 10 µM, first compound 3.16 µM
# [36] = second compound 10 µM, first compound 10 µM
# 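Further: spheroids exposed to agents for seven days before readout.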
structure (smiles),measurement,setting,value
CCC(CC)c1cc(NC2CCC(N)C2)n2nccc2n1 (stereo unspecified) + C#Cc1c(F)ccc2cc(O)cc(-c3ncc4c(N5CC6CCC(C5)N6)nc(OCC56CCCN5CC(F)C6)nc4c3F)c12,IC50,second compound 0.0316 µM,1800 nM
same,IC50,second compound 0.1 µM,1780 nM
same,IC50,second compound 0.316 µM,1710 nM
same,IC50,second compound 1 µM,1620 nM
same,IC50,second compound 3.16 µM,1050 nM
same,IC50,second compound 10 µM,< 31.6 nM
same,"viability, T/C",[1],108%
same,"viability, T/C",[2],126%
same,"viability, T/C",[3],109%
same,"viability, T/C",[4],98.1%
same,"viability, T/C",[5],3.47%
same,"viability, T/C",[6],3.41%
same,"viability, T/C",[7],99.1%
same,"viability, T/C",[8],98.2%
same,"viability, T/C",[9],109%
same,"viability, T/C",[10],97.4%
same,"viability, T/C",[11],2.92%
same,"viability, T/C",[12],2.14%
same,"viability, T/C",[13],97.1%
same,"viability, T/C",[14],103%
same,"viability, T/C",[15],107%
same,"viability, T/C",[16],91.1%
same,"viability, T/C",[17],3.17%
same,"viability, T/C",[18],3.38%
same,"viability, T/C",[19],74.2%
same,"viability, T/C",[20],83.7%
same,"viability, T/C",[21],85.7%
same,"viability, T/C",[22],90.2%
same,"viability, T/C",[23],3.62%
same,"viability, T/C",[24],2.6%
same,"viability, T/C",[25],43.4%
same,"viability, T/C",[26],46.1%
same,"viability, T/C",[27],50.1%
same,"viability, T/C",[28],68.2%
same,"viability, T/C",[29],3.28%
same,"viability, T/C",[30],2.71%
same,"viability, T/C",[31],15.4%
same,"viability, T/C",[32],18.1%
same,"viability, T/C",[33],24.3%
same,"viability, T/C",[34],33.3%
same,"viability, T/C",[35],2.78%
same,"viability, T/C",[36],2.37%
Cc1nc(N2CCC3(CC2)COC(C)C3N)c(CO)nc1Sc1ccnc(N)c1Cl (stereo unspecified) + C#Cc1c(F)ccc2cc(O)cc(-c3ncc4c(N5CC6CCC(C5)N6)nc(OCC56CCCN5CC(F)C6)nc4c3F)c12,IC50,second compound 0.0316 µM,103 nM
same,IC50,second compound 0.1 µM,104 nM
same,IC50,second compound 0.316 µM,49.5 nM
same,IC50,second compound 1 µM,< 31.6 nM
same,IC50,second compound 3.16 µM,< 31.6 nM
same,IC50,second compound 10 µM,< 31.6 nM
same,"viability, T/C",[1],64.5%
same,"viability, T/C",[2],50.2%
same,"viability, T/C",[3],33.5%
same,"viability, T/C",[4],22.3%
same,"viability, T/C",[5],19%
same,"viability, T/C",[6],17.5%
same,"viability, T/C",[7],59.5%
same,"viability, T/C",[8],51.5%
same,"viability, T/C",[9],29.6%
same,"viability, T/C",[10],20%
same,"viability, T/C",[11],14.9%
same,"viability, T/C",[12],14%
same,"viability, T/C",[13],54.6%
same,"viability, T/C",[14],42.8%
same,"viability, T/C",[15],21.3%
same,"viability, T/C",[16],13.1%
same,"viability, T/C",[17],11.4%
same,"viability, T/C",[18],10.8%
same,"viability, T/C",[19],41.6%
same,"viability, T/C",[20],25.7%
same,"viability, T/C",[21],15.7%
same,"viability, T/C",[22],7.73%
same,"viability, T/C",[23],8.67%
same,"viability, T/C",[24],8.04%
same,"viability, T/C",[25],24.1%
same,"viability, T/C",[26],13.5%
same,"viability, T/C",[27],11%
same,"viability, T/C",[28],7.3%
same,"viability, T/C",[29],6.6%
same,"viability, T/C",[30],5.45%
same,"viability, T/C",[31],10.5%
same,"viability, T/C",[32],8.85%
same,"viability, T/C",[33],6.18%
same,"viability, T/C",[34],5.37%
same,"viability, T/C",[35],3.83%
same,"viability, T/C",[36],3.85%
NC1c2ccccc2OC12CCN(c1cnc3c(N4CCCc5ncccc54)n[nH]c3n1)CC2 (stereo unspecified) + C#Cc1c(F)ccc2cc(O)cc(-c3ncc4c(N5CC6CCC(C5)N6)nc(OCC56CCCN5CC(F)C6)nc4c3F)c12,IC50,second compound 0.0316 µM,< 31.6 nM
same,IC50,second compound 0.1 µM,< 31.6 nM
same,IC50,second compound 0.316 µM,< 31.6 nM
same,IC50,second compound 1 µM,< 31.6 nM
same,IC50,second compound 3.16 µM,< 31.6 nM
same,IC50,second compound 10 µM,< 31.6 nM
same,"viability, T/C",[1],34.9%
same,"viability, T/C",[2],25.9%
same,"viability, T/C",[3],18.1%
same,"viability, T/C",[4],14.8%
same,"viability, T/C",[5],17.4%
same,"viability, T/C",[6],15.8%
same,"viability, T/C",[7],36.4%
same,"viability, T/C",[8],23.2%
same,"viability, T/C",[9],16.8%
same,"viability, T/C",[10],13.9%
same,"viability, T/C",[11],12.5%
same,"viability, T/C",[12],12.4%
same,"viability, T/C",[13],28.2%
same,"viability, T/C",[14],18.1%
same,"viability, T/C",[15],11.8%
same,"viability, T/C",[16],8.85%
same,"viability, T/C",[17],10.4%
same,"viability, T/C",[18],8.35%
same,"viability, T/C",[19],17.7%
same,"viability, T/C",[20],11.2%
same,"viability, T/C",[21],8.78%
same,"viability, T/C",[22],7.65%
same,"viability, T/C",[23],5.83%
same,"viability, T/C",[24],5.6%
same,"viability, T/C",[25],9.96%
same,"viability, T/C",[26],7.32%
same,"viability, T/C",[27],5.29%
same,"viability, T/C",[28],4.36%
same,"viability, T/C",[29],4.13%
same,"viability, T/C",[30],5.5%
same,"viability, T/C",[31],7.06%
same,"viability, T/C",[32],4.42%
same,"viability, T/C",[33],3.79%
same,"viability, T/C",[34],3.47%
same,"viability, T/C",[35],4%
same,"viability, T/C",[36],4.4%
